Assay results as given in PMC11992225, “Antibacterial compounds against non-growing and intracellular bacteria” (npj Antimicrobials and Resistance, 2025).
Converted amounts (≈) assume the structure as drawn. Read-outs that look alike come from different tables or passages of the source.

Columns and labels:
P. aeruginosa DSM1117 = assay: MIC, standard microdilution assay, growing P. aeruginosa; assay type: cell-based, Pseudomonas aeruginosa; conditions: P. aeruginosa; for MIC: Pseudomonas aeruginosa, DSM1117
In short: (§1)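 Broth microdilution was used throughout. UPEC, P. aeruginosa and S. aureus were tested in CA-MHB buffered with 40 mM HEPES (pH 7.4); UPEC was additionally tested in LPM with 30 mM MES (pH 5.5). S. flexneri was grown in TSB. All determinations were run in triplicate.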

non-growing UPEC CFT073 = assay: Dilution-regrowth assay (screen, hit validation, dose-response) on stationary-phase UPEC; assay type: cell-based, Escherichia coli; conditions: for Regrowth, OD600 at 6h or 8h after dilution into drug-free medium: average; for EC50: Escherichia coli, pH 7.4
In short: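 Regrowth (OD600 after 6 h, 37 °C) of diluted non-growing CFT073, following 24 h compound treatment of 24 h stationary cultures, defines activity relative to untreated control. Screen at 20 µM, validation at 20, 10, 5 µM (duplicates), dose–response in three biological replicates fitted by five-parameter logistic.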

S. aureus DSM2569 = assay: MIC, standard microdilution assay, growing S. aureus; assay type: cell-based, Staphylococcus aureus; conditions: Staphylococcus aureus, DSM2569; S. aureus; CA-MHB pH 7.4; read-out: MIC (μM) CA-MHB
In short: as §1

S. flexneri 5a M90T = assay: MIC in tryptic soy broth, S. flexneri; assay type: cell-based, Shigella flexneri; conditions: Shigella flexneri, 5AM90T, read-out: MIC (μM) TSB
In short: as §1

[1] = system: non-growing P. aeruginosa DSM1117; assay: Dilution-regrowth assay (OD600, start-growth-time) on stationary-phase P. aeruginosa; assay type: cell-based, Pseudomonas aeruginosa; conditions: P. aeruginosa; for Regrowth, OD600 at 6h or 8h after dilution into drug-free medium: average; for EC50: Pseudomonas aeruginosa, DSM1117, regrowth delay of non-growing bacteria, 1:4 CA-MHB pH 7.4, 24 h treatment, OD600 8 h after dilution, read-out: EC50
Protocol: To determine the spectrum of activity of the compounds that were effective against non-growing UPEC, we further assessed their efficacy against the well-characterized Gram-negative and Gram-positive reference strains P. aeruginosa DSM1117 and S. aureus DSM2569, respectively. The cultures were grown and treated for 24 h in 1:4 CA-MHB (pH 7.4). […].
For better characterization of the compounds causing the strongest regrowth delay, we performed the regrowth step of the dilution-regrowth experiments on a plate reader, measuring the OD600 at 20-min intervals for over 20 h instead of using an endpoint measurement. This approach allowed us to capture the time when cultures reached a threshold optical density (start-growth-time, SGT[15]).
Overnight cultures of UPEC, P. aeruginosa and S. aureus were grown in test tubes containing 3 ml of LB broth (~16 h), then diluted 1:100 into either 1:4 diluted CA-MHB medium buffered with 40 mM HEPES (pH 7.4) or, in case of UPEC, into LPM medium[25] supplemented with 49 µM MgCl2 and buffered with 30 mM MES (pH 5.5). The cultures were incubated for 24 h in non-baffled Erlenmeyer flasks at 37 °C with shaking at 200 rpm.
For P. aeruginosa and S. aureus, dose–response analysis was conducted in 96-well plates with a 200 μl assay volume, following the procedure used for screening assay validation experiments. Aliquots of the 39 compounds active against non-growing UPEC were obtained from SelleckChem and MedChem Express. Stock solutions were prepared and stored according to the manufacturers’ instructions, then diluted in 10% DMSO before use. Cultures were incubated for 24 h in 1:4 diluted CA-MHB medium under the same conditions used for UPEC cultivation. In preliminary experiments, each compound was tested at a concentration of 20 μM in the dilution-regrowth assay with 4 technical replicates. Regrowth was monitored using a microplate reader at 37 °C with continuous shaking, and OD600 was recorded every 20 min. The time at which OD600 exceeded the threshold of 0.12 was recorded as the Start_Growth-Time.
The statistical analysis of all data, as well as EC50 and IC50 determination, was conducted using GraphPad Prism 10.2.3. Statistical significance of the drug effects was assessed using a one-way ANOVA followed by Dunnett’s test, comparing each treatment to the drug-free control. Statistical significance of the differences in chemical characteristics between the hit compounds and the Prestwick library was assessed using a Mann–Whitney test. Statistical significance was set at P ≤ 0.05. A five-parameter logistic equation was used for asymmetric sigmoidal curve fitting and for EC50 and IC50 determination. The Venn diagram in Fig. 1F was prepared using BioVenn web application. Characteristics of the chemical and physical properties of Prestwick library compounds were obtained from Supplementary Table S1 from reference. Characteristics of the hit compounds not included in the Prestwick library were retrieved from the PubChem database.

E. coli CFT073 (UPEC) = assay: MIC, standard microdilution assay, growing UPEC; assay type: cell-based, Escherichia coli; conditions: Escherichia coli
In short: as §1

[2] = 1:4 diluted CA-MHB pH 7.4, read-out: MIC (μM) 1:4 CA-MHB
[3] = CA-MHB pH 7.4, read-out: MIC (μM) CA-MHB
[4] = E. coli, pH 7.4, CA-MHB, read-out: MIC (μM) CA-MHB
[5] = E. coli, regrowth delay of non-growing bacteria, 1:4 CA-MHB, 24 h treatment, OD600 6 h after 2500-fold dilution, read-out: EC50

Compound	MIC (P. aeruginosa DSM1117; [2]) [µM]	MIC (P. aeruginosa DSM1117; [3]) [µM]	MIC (S. aureus DSM2569) [µM]	MIC (S. flexneri 5a M90T) [µM]	EC50 [1] [nM]	MIC (E. coli CFT073 (UPEC); [4]) [µM]	EC50 (non-growing UPEC CFT073; [5]) [nM]	other results
N[C@@H]1CCCCN(c2c(F)cc3c(=O)c(C(=O)O)cn(C4CC4)c3c2Cl)C1 [Besifloxacin]	8 (≈ 3.15 µg/mL)	4 (≈ 1.58 µg/mL)	0.25 (≈ 0.0985 µg/mL)	0.25 (≈ 0.0985 µg/mL)	266	0.25 (≈ 0.0985 µg/mL)		increase of MIC in diluted CA-MHB versus CA-MHB (P. aeruginosa DSM1117): twofold; Regrowth, OD600 at 6h or 8h after dilution into drug-free medium (non-growing UPEC CFT073; E. coli in 1:4 CA-MHB (pH 7.4), concentration 0.25): 0.548; Regrowth, OD600 at 6h or 8h after dilution into drug-free medium (non-growing UPEC CFT073; E. coli in 1:4 CA-MHB (pH 7.4), concentration 0.5): 0.480; Regrowth, OD600 at 6h or 8h after dilution into drug-free medium (non-growing UPEC CFT073; E. coli in 1:4 CA-MHB (pH 7.4), concentration 1): 0.155; Regrowth, OD600 at 6h or 8h after dilution into drug-free medium (non-growing UPEC CFT073; E. coli in 1:4 CA-MHB (pH 7.4), concentration 2.5): 0.075; Regrowth, OD600 at 6h or 8h after dilution into drug-free medium (non-growing UPEC CFT073; E. coli in 1:4 CA-MHB (pH 7.4), concentration 5): 0.073; Regrowth, OD600 at 6h or 8h after dilution into drug-free medium (non-growing UPEC CFT073; E. coli in 1:4 CA-MHB (pH 7.4), concentration 10): 0.071; Regrowth, OD600 at 6h or 8h after dilution into drug-free medium (non-growing UPEC CFT073; E. coli in 1:4 CA-MHB (pH 7.4), concentration 30): 0.073; Regrowth, OD600 at 6h or 8h after dilution into drug-free medium (non-growing UPEC CFT073; E. coli in LPM (pH 5.5), concentration 0.25): 0.547; Regrowth, OD600 at 6h or 8h after dilution into drug-free medium (non-growing UPEC CFT073; E. coli in LPM (pH 5.5), concentration 0.5): 0.532; Regrowth, OD600 at 6h or 8h after dilution into drug-free medium (non-growing UPEC CFT073; E. coli in LPM (pH 5.5), concentration 1): 0.550; Regrowth, OD600 at 6h or 8h after dilution into drug-free medium (non-growing UPEC CFT073; E. coli in LPM (pH 5.5), concentration 2.5): 0.548; Regrowth, OD600 at 6h or 8h after dilution into drug-free medium (non-growing UPEC CFT073; E. coli in LPM (pH 5.5), concentration 5): 0.531; Regrowth, OD600 at 6h or 8h after dilution into drug-free medium (non-growing UPEC CFT073; E. coli in LPM (pH 5.5), concentration 10): 0.531; Regrowth, OD600 at 6h or 8h after dilution into drug-free medium (non-growing UPEC CFT073; E. coli in LPM (pH 5.5), concentration 30): 0.471; EC50 (non-growing UPEC CFT073): 677 nM; Regrowth, OD600 at 6h or 8h after dilution into drug-free medium ([1]; concentration 0.1): 0.563; Regrowth, OD600 at 6h or 8h after dilution into drug-free medium ([1]; concentration 0.5): 0.201; Regrowth, OD600 at 6h or 8h after dilution into drug-free medium ([1]; concentration 2.5): 0.091; Regrowth, OD600 at 6h or 8h after dilution into drug-free medium ([1]; concentration 10): 0.090
O=C(O)c1cn(C2CC2)c2cc(N3CCNCC3)c(F)cc2c1=O [Ciprofloxacin]	2 (≈ 0.663 µg/mL)	2 (≈ 0.663 µg/mL)	2 (≈ 0.663 µg/mL)	0.0625 (≈ 0.0207 µg/mL)	125	0.125 (≈ 0.0414 µg/mL)	1380	MIC (E. coli CFT073 (UPEC); E. coli, LPM pH 5.5, read-out: MIC): 0.25 µM (≈ 0.0828 µg/mL)
NC1CCN(c2c(F)cc3c(=O)c(C(=O)O)cn(C4CC4)c3c2Cl)C1 (stereo not shown) [Clinafloxacin]	0.25 (≈ 0.0914 µg/mL)	0.5 (≈ 0.183 µg/mL)	0.125 (≈ 0.0457 µg/mL)	0.0156 (≈ 0.00572 µg/mL)	41	0.0125 (≈ 0.00457 µg/mL)	906	MIC (E. coli CFT073 (UPEC); see Dataset 1, read-out: MIC (lowest measured MIC for all hit compounds)): 0.0125 µM (≈ 0.00457 µg/mL)
CN1C[C@@H]2C[C@H]1CN2c1cc2c(cc1F)c(=O)c(C(=O)O)cn2C1CC1 [Danofloxacin]	4 (≈ 1.43 µg/mL)	4 (≈ 1.43 µg/mL)	0.5 (≈ 0.179 µg/mL)	0.0625 (≈ 0.0223 µg/mL)	604	0.125 (≈ 0.0447 µg/mL)	2160	
